Measured values taken from patent publication US9789194B2, “Graft copolymer polyelectrolyte complexes for drug delivery” (priority 2007, dated 2017).
Peptide text beside a SMILES is read from it.

Tests used:
[1] = system: Staphylococcus aureus UAMS-1; assay type: cell-based
Description: The minimum inhibitory concentrations (MIC) KSL-W and its nanocomplexes were measured using the Clinical Laboratory Standards Institute (CLSI) broth microdilution method. Briefly, two-fold serial dilutions of free or complexed KSL-W solutions were prepared in THB medium at a volume of 200 µL/well in flat-bottom 96-well tissue culture plates (BD Biosciences). Hundred microliter of Staphylococcus aureus UAMS-1 (10^6 CFU/mL) was then added to each well. Plates were incubated overnight at 37° C. and then assessed by turbidity (absorbance at 600 nm). The concentration at which no turbidity was observed was considered the MIC. Each assay was reproduced in triplicate.

in vitro = conditions: human, plasma, half-life of the peptide, 50% human plasma
Description: Aqueous solutions of the peptide:polymer complexes with various peptide:[…], were combined 1:1 v/v with human plasma sodium heparin anticoagulated, Biological Specialty Corporation) and placed in a 37° C. incubator. Fifty microliter aliquots of this mixture were injected at 1 h intervals onto a Prosphere HP C18-300 column, 250×4.6 mm ((Grace) mounted on a Waters HPLC system. The injection was loaded onto the column and equilibrated using a 90%/10%/0.1% water/acetonitrile/trifluoroacetic acid mobile phase and then eluted using a continuous gradient up to 70% acetonitrile. Integration of the KSL-W absorbance peak at 280 nm was used to determine peptide concentration in each sample. Every sample was run in parallel with a free-drug control at the same concentration.

[2] = KSL-W binding efficiency by ultrafiltration; assay type: physicochemical; conditions: free peptide, 10 kDa MWCO ultrafiltration
Description: Efficiency of binding for each polymer-drug complex was determined using ultrafiltration. Ultrafiltration cartridges with 10 k MWCO (Amicon Microcon Ultrafiltration Filters) were used according to manufacturer's instructions. […] The KSL-W content of filtrate and retentate were determined using HPLC as described above.

[3] = KSL-W release profiles by dialysis; assay type: physicochemical; conditions: free peptide, within the first 6 h of dialysis
Description: Each membrane cartridge was placed into 40 mL of water at 37° C. with gentle rocking (VWR brand incubating rocker, 50 Hz/15°). […] The amount of KSL-W remaining in each cartridge was evaluated at each time point using HPLC.

For gentamicin, the MIC ([1]; same S. aureus strain and conditions) was < 3100 µg/mL.
With CC(C)[C@H](NC(=O)[C@H](Cc1c[nH]c2ccccc12)NC(=O)[C@H](Cc1ccccc1)NC(=O)[C@@H](NC(=O)[C@@H](NC(=O)[C@H](CCCCN)NC(=O)[C@@H](N)CCCCN)C(C)C)C(C)C)C(=O)N[C@@H](CCCCN)C(=O)N[C@@H](Cc1ccccc1)C(=O)N[C@@H](CCCCN)C(N)=O [KSL-W] (H-KKVVFWVKFK-NH2; N-terminus and C-terminus assumed) the half-life (in vitro; initial KSL-W concentration between 33 and 72 μg/mL) was 4 h, the half-life (in vitro; initial concentration between 13:2 and 330) was 1 h and the “MIC (S. aureus UAMS-1)” value ([1]; UAMS-1) was 62 to 153 µg/mL. The “MIC ratio (complexed/free)” value ([1]; free peptide, charge ratio NA) was 1, the “efficiency of passing through the membrane” value [2] was “over 95%” and the “release through 8-10 kDa dialysis membrane” value [3] was “over 95%”.
